Results as given in publication PMC9537572, “Elucidation of the binding mechanism of astragaloside IV derivative with human serum albumin and its cardiotoxicity in zebrafish embryos” (Frontiers in Pharmacology, 2022).

System: zebrafish embryos
Assay: Astemizole-induced cardiotoxicity in zebrafish embryos: heart rate and SV-BA spacing
Type: in vivo
Details: 4 µM astemizole; for Heart rate (beats/min) (Mean±SE) / SV-BA spacing (µm) (Mean±SE): n = 10
Description: A total of 270 wild-type AB zebrafish at 3 dpf were randomly selected, and 30 zebrafish were plated in each well of a six-well plates. The concentrations of LS-102 were 27.8, 83.3 and 250 µg/ml, AGS IV was 250 µg/mL. A normal control group (fish culture water) and a 4 µM astemizole model control group were also established. Ten zebrafish were randomly selected from each group, and the heart rate and venous sinus-to-arterial bulb distance (SV-BA) of zebrafish were observed under a dissecting microscope after 2 h, 6 h and 24 h of LS-102 and AGS IV treatment. Images were collected by photographing, and the ameliorative effect of LS-102 and AGS IV on astemizole-induced cardiotoxicity in zebrafish was evaluated by the statistical significance of the heart rate and the SV-BA interval index.

Compound: CC(C)(O)C1CCC(C)(C2C(O)CC3(C)C4CC(OC5OC(C(=O)O)C(O)C(O)C5O)C5C(C)(C)C(OC6OCC(O)C(O)C6O)CCC56CC46CCC23C)O1 (centres unmarked) [LS-102, astragalosidic acid]
- Heart rate (beats/min) (Mean±SE) (27.8 µg/ml, 2 h): 156 ± 1 beats/min
- SV-BA spacing (µm) (Mean±SE) (27.8 µg/ml, 2 h): 179 ± 7 µm
- Heart rate (beats/min) (Mean±SE) (27.8 µg/ml, 6 h): 158 ± 1 beats/min
- SV-BA spacing (µm) (Mean±SE) (27.8 µg/ml, 6 h): 204 ± 6 µm
- Heart rate (beats/min) (Mean±SE) (27.8 µg/ml, 24 h): 45 ± 23 beats/min
- SV-BA spacing (µm) (Mean±SE) (27.8 µg/ml, 24 h): 250 ± 6 µm
- Heart rate (beats/min) (Mean±SE) (83.3 µg/ml, 2 h): 157 ± 2 beats/min
- SV-BA spacing (µm) (Mean±SE) (83.3 µg/ml, 2 h): 157 ± 3 µm
- Heart rate (beats/min) (Mean±SE) (83.3 µg/ml, 6 h): 153 ± 1 beats/min
- SV-BA spacing (µm) (Mean±SE) (83.3 µg/ml, 6 h): 168 ± 4 µm
- Heart rate (beats/min) (Mean±SE) (83.3 µg/ml, 24 h): 128 ± 21 beats/min
- SV-BA spacing (µm) (Mean±SE) (83.3 µg/ml, 24 h): 228 ± 7 µm
- Heart rate (beats/min) (Mean±SE) (250 µg/ml, 2 h): 160 ± 1 beats/min
- SV-BA spacing (µm) (Mean±SE) (250 µg/ml, 2 h): 151 ± 3 µm
- Heart rate (beats/min) (Mean±SE) (250 µg/ml, 6 h): 167 ± 1 beats/min
- SV-BA spacing (µm) (Mean±SE) (250 µg/ml, 6 h): 158 ± 6 µm
- Heart rate (beats/min) (Mean±SE) (250 µg/ml, 24 h): 162 ± 7 beats/min
- SV-BA spacing (µm) (Mean±SE) (250 µg/ml, 24 h): 174 ± 9 µm
- Effect on astemizole-induced heart rate slowing and SV-BA spacing increase (in words) (2 h and 6 h, 27.8, 83.3 and 250 µg/ml): improved the slowed heart rate and increased the SV-BA spacing
- Effect on astemizole-induced heart rate slowing and SV-BA spacing increase (in words) (24 h): improved the slowed heart rate at 250 µg/ml and the increase in SV-BA spacing at 83.3 and 250 µg/ml
